Source: patent publication US11612605B2, “(+)-azasetron for use in the treatment of ear disorders” (SENSORION, priority 2016, dated 2023)
Like-named read-outs stand apart in the source and are kept apart here. Values belong to the molecule of their own block, whether it stands above or below them.

Assays:
[1] = Pharmacokinetics study: exposure in inner ear, perilymph and tail plasma after single oral dose; type: in vivo, Wistar rats; conditions: for AUC: po, 10 mg/kg, 10 mg/kg p.o., per-interval AUC of azasetron free-base
From the text: The 72 male Wistar rats received on 28 Jan. 2016 from Janvier (Janvier, Le Genest-St-Isle) were assigned to the study. They were divided in 3 groups of 24 animals each, one group per test article. Each group was divided in […] subgroups according to the 6-termination time-points.
72 Wistar rats were subjected to oral single dose administration of the test article, racemic azasetron hydrochloride, azasetron hydrochloride (+) or azasetron hydrochloride (−), and sacrificed at different time-points to assess the exposure of the test article in the inner ear, perilymph, and plasma. • Group racemic azasetron: 24 male Wistar, 4 rats per time-point: 10 mg/kg azasetron HCl dissolved in NaCl 0.9%. Administrated as 5 mL/kg p.o.; • Group azasetron (+): 24 male Wistar, 4 rats per time-point: 10 mg/kg (+)-azasetron HCl dissolved in NaCl 0.9%. Administrated as 5 mL/kg p.o.; • Group azasetron (−): 24 male Wistar, 4 rats per time-point: 10 mg/kg (−)-azasetron HCl dissolved in NaCl 0.9%. Administrated as 5 mL/kg p.o.
There were 6 termination time-points for each test article. At time-points 15/30/60/120/240/480 minutes after administration: peripheral plasma from the tail was sampled. The animals were sacrificed by i.v. administration of 0.25 mL/rat of a 160 mg/mL pentobarbital solution. Following sacrifice, the heart blood and both tympanic bullas (left and right) were sampled.
Both tympanic bullas (left and right) were collected, however, only the left one was used for the perilymph and inner ear analysis. The right bulla was stored at −20° C. for future needs when required. For animal IDs 1 and 4, the right bulla was used for the sampling of perilymph and inner ear.
The left bulla was dissected fresh. Briefly, the bulla was opened via the auditory opening to reveal the bone surrounding the cochlea after which the tip of the bone was removed with forceps and a 10 μL pipette tip was inserted to withdraw perilymph.
Upon exposure of the tip of the cochlea, 2 μL of perilymph (fluid) could be recovered from the bulla. The perilymph was brought to 10 μL by the addition of 8 μL water, and then extract via the addition of 30 μL of acetonitrile. After that, the samples were centrifuged and the supernatant was transferred to a glass vial appropriate for the HPLC-MS auto-sampler.
Following recovering of the perilymph, the bones of the inner ear and cochlea components were removed with fine forceps and added to a tared Eppendorf tube. The collection was weighed and brought to 10 mg with the addition of water and placed on ice until extraction. 30 μL of acetonitrile was added and the tubes were incubated in an ultrasound bath, after which they were centrifuged and the supernatant was transferred to a glass vial appropriate for the HPLC-MS auto-sampler. In the process or removing the bones of the inner ear, they were finely distributed in the media and broken by forceps. (Due to the very low volume of the tissue and its fine structure, separate grinding is considered risky vs the potential losses to plastic and media. The materials are very fine in nature and the bone particles are small thus providing only short interfaces to media. The absence of fat and the incubation in solvent is intended to provide sufficient solubility of active ingredient).
The acetonitrile used in the sample preparation for bio-analysis contained the internal standard for the HPLC-MS analysis.
30 μL acetonitrile including the internal standard were added to each 10 μL plasma sample. After adding the acetonitrile, the samples were mixed by vortex and further centrifuged. The supernatant was transferred to a glass vial appropriate for the HPLC-MS auto-sampler.
The LC system comprised an Agilent 1260 liquid chromatography equipped with a binary pump and a column oven, together with a PAL HTS-xt auto-sampler. It is linked to the AB SCIEX TRIPLE QUADTM 4500 (triple-quadrupole) instrument with an ESI interface and a switching valve integrated (Mass spectrometric analysis). […]

[2] = tested on: cochlear outer hair cells (OHC); assay: Outer hair cell survival after cisplatin (cochleograms from whole-mount fixed cochleae); type: in vivo, female Wistar rats; conditions: 14 days of treatment after cisplatin
Experimental: Two days after baseline audiometry (ABR and DPOAE measurements), oral treatment was initiated in both groups 15 minutes before 8 mg/kg cisplatin infusion during 30 minutes under isoflurane anesthesia. On D14, ABR and DPOAE measurements were performed to evaluate ABR threshold shifts and DPOAE amplitude loss relative to baseline and the temporal bones of each animal were subsequently preserved with PFA fixation for histology (FIG. 5).
To evaluate the effect of (+) azasetron on outer hair cells (OHC) survival after cisplatin administration at an ototoxic dose, cochleograms of surviving OHCs were constructed from whole-mount fixed cochleae.

[3] = tested on: unilateral vestibular dysfunction induced by intratympanic kainic injection; assay: Kainate model of peripheral excitotoxic vestibular injury: spontaneous nystagmus and roll angle deviation; type: in vivo, female Long-Evans; conditions: 5.6 mg/kg intraperitoneal daily for 3 days
Experimental: The capacity of (+)-azasetron besylate to protect against lesions in the peripheral vestibular system was assessed using the kainate model of peripheral excitotoxic injury. Following unilateral, transtympanic injection of the excitotoxic kainic acid leading to the swelling, retraction and uncoupling of synapses between vestibular sensory hair cells and primary afferent neurons, baseline recordings of spontaneous nystagmus (pathological eye movements caused by a deficit of the vestibuloculomotor reflex) and postural deviations are performed before randomization to treatment groups. Recordings were repeated daily for 3 days, then again at D6 and D13 after lesion induction.
Following lesion induction and baseline recordings at t=1h, female Long-Evans were randomized to receive intraperitoneal injections of placebo (n=18) or 5.6 mg/kg (+)-azasetron besylate daily for 3 days (t=1/24/[…]). Recording of spontaneous nystagmus and postural deviations were repeated at 2/4/6/24/25/48/49 hours and D6/D13 after initial lesion induction (FIG. 9).

- Total AUC Inner ear ([1]; 10 mg/kg p.o. single dose): 27829 nM·min
- Total AUC Perilymph ([1]; 10 mg/kg p.o. single dose): 11901 nM·min
- Total AUC Tail plasma ([1]; 10 mg/kg p.o. single dose): 65448 nM·min
- concentration at 15 min ([1]; male, Wistar, rat, inner ear, oral, 10 mg/kg p.o. single dose, Time 15 (min), read-out: Average Inner ear concentration (ng azasetron free-base/g tissue)): 29 ng/g
- concentration at 30 min ([1]; male, Wistar, rat, inner ear, oral, 10 mg/kg p.o. single dose, Time 30 (min), read-out: Average Inner ear concentration (ng azasetron free-base/g tissue)): 27 ng/g
- concentration at 60 min ([1]; male, Wistar, rat, inner ear, oral, 10 mg/kg p.o. single dose, Time 60 (min), read-out: Average Inner ear concentration (ng azasetron free-base/g tissue)): 8 ng/g
- concentration at 120 min ([1]; male, Wistar, rat, inner ear, oral, 10 mg/kg p.o. single dose, Time 120 (min), read-out: Average Inner ear concentration (ng azasetron free-base/g tissue)): 46 ng/g
- concentration at 240 min ([1]; male, Wistar, rat, inner ear, oral, 10 mg/kg p.o. single dose, Time 240 (min), read-out: Average Inner ear concentration (ng azasetron free-base/g tissue)): 21 ng/g
- concentration at 480 min ([1]; male, Wistar, rat, inner ear, oral, 10 mg/kg p.o. single dose, Time 480 (min), read-out: Average Inner ear concentration (ng azasetron free-base/g tissue)): 3 ng/g
- AUC ([1]; male, Wistar, rat, inner ear, Time 15 (min), read-out: Inner ear AUC (converted)): 0.0102 µM·h
- AUC ([1]; male, Wistar, rat, inner ear, Time 30 (min), read-out: Inner ear AUC (converted)): 0.0198 µM·h
- AUC ([1]; male, Wistar, rat, inner ear, Time 60 (min), read-out: Inner ear AUC (converted)): 0.0247 µM·h
- AUC ([1]; male, Wistar, rat, inner ear, Time 120 (min), read-out: Inner ear AUC (converted)): 0.0772 µM·h
- AUC ([1]; male, Wistar, rat, inner ear, Time 240 (min), read-out: Inner ear AUC (converted)): 0.193 µM·h
- AUC ([1]; male, Wistar, rat, inner ear, Time 480 (min), read-out: Inner ear AUC (converted)): 0.139 µM·h
- AUC ([1]; male, Wistar, rat, perilymph, Time 15 (min), read-out: Perilymph AUC (converted)): 0.00507 µM·h
- AUC ([1]; male, Wistar, rat, perilymph, Time 30 (min), read-out: Perilymph AUC (converted)): 0.0102 µM·h
- AUC ([1]; male, Wistar, rat, perilymph, Time 60 (min), read-out: Perilymph AUC (converted)): 0.015 µM·h
- AUC ([1]; male, Wistar, rat, perilymph, Time 120 (min), read-out: Perilymph AUC (converted)): 0.0363 µM·h
- AUC ([1]; male, Wistar, rat, perilymph, Time 240 (min), read-out: Perilymph AUC (converted)): 0.0747 µM·h
- AUC ([1]; male, Wistar, rat, perilymph, Time 480 (min), read-out: Perilymph AUC (converted)): 0.0571 µM·h
- AUC ([1]; male, Wistar, rat, tail plasma, Time 15 (min), read-out: Tail plasma AUC (converted)): 0.0203 µM·h
- AUC ([1]; male, Wistar, rat, tail plasma, Time 30 (min), read-out: Tail plasma AUC (converted)): 0.034 µM·h
- AUC ([1]; male, Wistar, rat, tail plasma, Time 60 (min), read-out: Tail plasma AUC (converted)): 0.0515 µM·h
- AUC ([1]; male, Wistar, rat, tail plasma, Time 120 (min), read-out: Tail plasma AUC (converted)): 0.17 µM·h
- AUC ([1]; male, Wistar, rat, tail plasma, Time 240 (min), read-out: Tail plasma AUC (converted)): 0.416 µM·h
- AUC ([1]; male, Wistar, rat, tail plasma, Time 480 (min), read-out: Tail plasma AUC (converted)): 0.4 µM·h
Compound: CN1C(=O)COc2c(C(=O)N[C@@H]3CN4CCC3CC4)cc(Cl)cc21 [(−)-azasetron]

Compound: CN1C(=O)COc2c(C(=O)NC3CN4CCC3CC4)cc(Cl)cc21.O=S(=O)(O)c1ccccc1 (single isomer, unassigned; (+)) [(+)-azasetron besylate]
- conservation of OHCs in the basal turn of the cochlea versus placebo [2]: up to 11 fold
- number of surviving OHCs versus placebo ([2]; p<0.001): significantly higher
- improvement (reduction) of roll angle deviation (postural head tilt) versus placebo ([3]; p<0.001): 30-62%
- improvement of spontaneous nystagmus versus placebo ([3]; p=0.048): 6-48%
